Measurements taken from patent US20200297820A1, “STIMULATION OF HUMAN MEIBOMIAN GLAND FUNCTION” (The Schepens Eye Research Institute, Inc., priority 2013, published 2020).
“Also recorded” adds a separate entry of the source. Read-outs that look alike come from different tables or passages of the source.

Tests used:
Assay type in all cases: cell-based
[1] = system: immortalized human meibomian gland epithelial cells; experiment: LipidTOX green neutral lipid staining (lipid accumulation); conditions: for accumulation of neutral lipids: 10 nM, 6 days, differentiation media; for accumulation of lipid: days 1 to 7
Experimental: (§1) As an example of these experiments, immortalized human meibomian gland epithelial cells were cultured in the presence or absence of 10% fetal bovine serum. Cells were treated with an ethanol vehicle or azithromycin (10 μg/ml; Santa Cruz Biotechnology) for varying time periods. Cellular morphological appearance was recorded, cells were counted with a hemocytometer, and lipid accumulation was assessed by staining the cells with LipidTOX green neutral lipid stain (Invitrogen, Grand Island, N.Y.), according to reported methods. Staining fluorescent intensities were quantified by using ImageJ (http://rsbweb.nih.gov/ij/index.html). Statistical analyses were performed with Student's t-test (two-tailed, unpaired).
(§2) Immortalized human meibomian gland epithelial cells (IHMGECs; passages 20-22) were cultured in the presence or absence of 10% fetal bovine serum. Cells were treated with the ethanol vehicle or azithromycin (10 μg/mL) for varying periods. Cellular morphological appearance was recorded, cells were counted with a hemocytometer, and lipid accumulation was assessed by staining cells with LipidTOX green neutral lipid stain (Invitrogen Corp). Staining fluorescent intensities were quantified using ImageJ software (http://rsbweb.nih.gov/ij/index.html). Statistical analyses were performed with t test (2-tailed, unpaired).
Cell numbers were enumerated with a hemocytometer. Cellular lipid and lysosome accumulation were examined by staining cells with: Filipin III (a fluorometric probe for identifying unesterified cholesterol), LipidTOX green neutral lipid stain, and LysoTracker® Red DND-99 (a fluorescent technique designed for labeling acidic organelles such as lysosomes). Lysosomal lamellar bodies were identified by transmission electron microscopy. In brief, after culture and treatment on 24 mm polycarbonate membrane transwell inserts (0.4 μm pore size), cells were fixed in a solution of 2% formaldehyde+2.5% glutaraldehyde, in 0.08 M sodium cacodylate buffer, pH 7.4, post-fixed with 2% osmium tetroxide in 0.1 M sodium cacodylate buffer, and stained en bloc with 2% aqueousuranyl acetate. […] Cross sections (1 μM) were stained with 1% toluidine blue in 1% sodium tetraborate solution. Ultra-thin sections (60-90 nm) were imaged with a transmission electron microscope interfaced with a digital CCD camera. For biochemical assessments, cellular lipids were extracted with chloroform and methanol from samples with the same amount of protein. Lipids were then evaluated with high-performance thin-layer chromatography. With regard to the staining results, three Filipin, five LipidTox and four LysoTracker studies were conducted, and each experiment was performed in duplicate. Four random pictures were taken of each group, and four random areas were selected for the measurement of fluorescent intensities. The HPTLC experiments were performed in duplicate more than three times. Image data were quantified with ImageJ (http://rsbweb.nib.gov/ij/index.html). Electron microscopic analyses were performed in triplicate.
The experiment included green neutral lipid staining. Immortalized human meibomian gland epithelial cells were cultured in slides treated to facilitate cell growth in FBS-containing medium in the presence or absence of IGF-1, anti-IGF-1R, and/or GH. Media were replaced every 2 to 3 days for a total of 6 days, at which time cells were washed and fixed in 4% paraformaldehyde for 30 minutes. After additional washes, cells were stained with green neutral lipid stain in a humid chamber for 30 minutes. Coverslips were mounted on slides with an antifade reagent that contains 4′,6-diamidino-2-phenylindole nuclear stain and permitted to dry overnight before imaging with a microscope. Fluorescence intensity was quantified using image-processing software.

[2] = system: immortalized human meibomian gland epithelial cells; experiment: Cell proliferation, cells counted with a hemocytometer; conditions: for cell proliferation: 10 nM IGF-1 or 10 μg/mL AZM, 13 days, P<0.0001; for cell number: 10 nM
Experimental: as §1, §2
(§3) Regarding cell proliferation assay, the human meibomian gland epithelial cells and LNCaP cells were cultured in 12-well plates in designated media and then exposed to IGF-1 or GH for defined periods. At experimental termination, cells were trypsinized and counted with a hemocytometer.
(§4) FIGS. 10a, 10b, and 10c illustrate the influence of IGF-1 on the proliferation of human meibomian gland epithelial cells. Cells were cultured (100,000 cells/well in 12-well plates, 3 wells per group) in basal, proliferating, and/or differentiating media and treated with IGF-I for 2 to 6 days. […] P values are for post hoc comparison compared with the control value. […] ANOVA indicates analysis of variance; EGF-BPE, epidermal growth factor-bovine pituitary extract; KSFM, keratinocyte serum-free medium. All comparisons are with control value. Whiskers mark SEM. aP<0.05 compared with the control value, post hoc test.

[3] = system: human meibomian gland epithelial cells; experiment: Immunoblot of SREBP-1 and cyclins B1, D1; conditions: for amount of the precursor form of SREBP-1 protein: 10 nM, 6 days, differentiation media
Experimental: The disclosure turns now to sodium dodecyl sulfate-polyacrylamide gel, electrophoresis, and immunoblots. Cells were directly lysed in Laemmli buffer supplemented with 1% protease inhibitor cocktail (Sigma-Aldrich) and 5% β-mercaptoethanol (Sigma-Aldrich). Lysates were heated at 95° C. for 10 minutes, separated by sodium dodecyl sulfate-polyacrylamide gel electrophoresis on 10% Tris-glycine precast gels, and transferred to polyvinylidene difluoride membranes. Rabbit or mouse antibodies used were specific for phosphorylated Akt (p-Akt), pan-Akt, p-FoxO1, FoxO1, p-JAK2, JAK2, and β-actin; for p-ERK, ERK-2, STAT5, and the precursor form of SREBP-1; and for p-STAT5. Membranes were blocked with 5% bovine serum albumin in Tris-buffered saline containing 0.01% polysorbate 20. All primary antibodies were diluted to 1:1000 in blocking buffer except for p-Akt (1:4000), p-ERK (1:2000), ERK-2 (1:4000), SREBP-1 (1:200), and β-actin (1:10 000). Horseradish peroxidase-conjugated secondary antibodies were goat anti-rabbit IgG and Fc-specific goat anti-mouse IgG diluted to 1:5000. Proteins were visualized with enhanced chemiluminescent substrate or with ultrasensitive chemiluminescent substrate. Densitometry was performed with image-processing software.
Turning to the influence of IGF-1 and GH on SREBP-1 expression and lipid accumulation, the experiments examined whether IGF-1 stimulates SREBP-1 expression and lipid accumulation in human meibomian gland epithelial cells. Cells were cultured for 6 days in differentiation media with IGF-1 and then processed the cells for protein and histologic analysis.
FIGS. 11a, 11b, 11c, and 11d illustrate the effect of IGF-1 on sterol regulatory element-binding protein (SREBP-1) expression and lipid accumulation in human meibomian gland epithelial cells. Cells were exposed to IGF-1 or growth hormone (GH) for 6 days in differentiation media and then processed for the analysis of the precursor form of SREBP-1 protein. […] represents 4′,6-diamidino-2-phenylindole nuclear staining. The SREBP-1 densitometry, normalized to that of β-actin, and neutral lipid staining fluorescence intensity (6 field views per treatment condition) were quantified by using image-processing software. These experiments were repeated at least 3 times with similar results. ANOVA indicates analysis of variance; AU, arbitrary units. Whiskers represent SEM.
FIGS. 15a, 15b, 15c, and 15d illustrate the effect of IGF-1, AZM, and IFG-1+AZM combination on the expression of SREBP-1, cyclins B1, and D1. Cells were incubated with vehicle, 10 nM IGF-1, 10 μg/mL AZM, or IGF-1+AZM combination for 5 days. Cell lysates were evaluated on immunoblots for precursor and mature forms of SREBP-1, cyclins B1 and D1. FIG. 15a quantifies the protein band intensities using ImageJ. […] These experiments were repeated at least three times with similar results.

LNCaP cells = experiment: Proliferation of LNCaP control cells; conditions: 1% FBS, 2 days
Experimental: as §3, §4

[4] = azithromycin 10 μg/ml vs vehicle
[5] = 10 nM IGF-1 or 10 μg/mL AZM, 5 days

Row | Molecule | accumulation of neutral lipids [1] | proliferation ([2]; any of the media, doses 0.1 to 100 nM) | amount of the precursor form of SREBP-1 protein [3] | proliferation (LNCaP cells) | fluorescence intensity of LipidTOX staining ([1]; 10 μg/mL, 13 days, two-way ANOVA P<0.0001) | accumulation of neutral lipids (LipidTOX) ([1]; 10 μg/ml, 5 days) | time to marked increase of number, size and staining intensity of intracellular lipid-containing vesicles [1, 4] | accumulation of lipid [1, 4] | accumulation of lipid ([1]; azithromycin 10 μg/ml vs vehicle, listed as azithromycin) | cell proliferation [2] | proliferation ([2]; azithromycin 10 μg/ml, absence and presence of serum, days 1 to 7) | expression of mature SREBP-1 [3, 5] | expression of SREBP-1 protein ([3]; azithromycin 10 μg/ml) | proliferation [2] | cell number ([2]; 10% FBS-containing medium, 2 to 6 days) | cell number ([2]; keratinocyte serum-free medium alone or with EGF-BPE, 2 days) | expression of pre-SREBP-1 ([3]; 10 nM IGF-1, 5 days) | expression of cyclin B1 [3, 5] | expression of SREBP-1 protein ([3]; IGF-1 10 nM, alone or with GH and/or DHT)
1 | GH: human growth hormone | not duplicated | no influence on the proliferation | not duplicated | increased |  |  |  |  |  |  |  |  |  |  |  |  |  |  | 
2 | CC[C@H]1OC(=O)[C@H](C)[C@@H](O[C@H]2C[C@@](C)(OC)[C@@H](O)[C@H](C)O2)[C@H](C)[C@@H](O[C@@H]2O[C@H](C)C[C@H](N(C)C)[C@H]2O)[C@](C)(O)C[C@@H](C)CN(C)[C@H](C)[C@@H](O)[C@]1(C)O [Azithromycin] |  |  |  |  | significant effect | significantly stimulates the accumulation | ≤ 3 days | striking, time-dependent accumulation of lipid | time-dependent accumulation of lipids; also recorded: striking, time-dependent accumulation of lipid | significant but opposite effect | generally reduced the proliferation | significant effect | increased expression |  |  |  |  |  | 
3 | IGF-1: recombinant human insulin-like growth factor 1 | increase in the accumulation of neutral lipids |  | rise in the amount of the precursor form of SREBP-1 protein | increased |  |  |  |  |  | significant but opposite effect |  | significantly affected |  | increases the proliferation | increase in cell number | not under basal conditions | significantly affected | significantly affected | significant increase in the expression of SREBP-1 protein
